Reference: article PMC10797628
Positions count from the first letter of the chain named. pKi: −log10 of the molar value. Read-outs that look alike come from different tables or passages of the source.

Key:
[1] = parameters: method as in PMID 26011730; conditions: cited from earlier work
[2] = system: mouse model of fragile X syndrome; parameters: method as in PMID 32566916; conditions: cited from earlier work
N7.39T 5-HT1A receptor = molecular target: T1, N7.39T 5-HT1A receptor (Homo sapiens, UniProt P08908, N386T); assay: Radioligand binding, N7.39T 5-HT1A
T1 sequence (P08908 1-422 N386T): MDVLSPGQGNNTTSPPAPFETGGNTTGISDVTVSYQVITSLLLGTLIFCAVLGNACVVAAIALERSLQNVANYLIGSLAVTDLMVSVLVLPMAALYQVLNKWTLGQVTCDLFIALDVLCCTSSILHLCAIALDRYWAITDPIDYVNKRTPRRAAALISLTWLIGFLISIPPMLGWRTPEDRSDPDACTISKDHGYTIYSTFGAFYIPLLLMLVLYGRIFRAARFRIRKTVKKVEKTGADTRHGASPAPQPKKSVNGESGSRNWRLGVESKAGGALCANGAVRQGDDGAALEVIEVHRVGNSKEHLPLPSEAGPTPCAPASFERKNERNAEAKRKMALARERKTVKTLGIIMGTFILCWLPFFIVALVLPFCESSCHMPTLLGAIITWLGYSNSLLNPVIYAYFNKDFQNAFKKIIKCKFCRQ
Method: 48 hours after transfection with the desired receptor construct, cells were isolated for saturation and competition binding assays as previously described.[47],[48],[57] Saturation and competition radioligand binding assays were conducted in an assay buffer consisting of 50 mM Tris HCl, 10 mM MgCl2, and 0.1 mM EDTA in filtered deionized water. […] Briefly, 5–10 μg of the receptor protein, as determined by a Thermo Fisher Pierce BCA protein assay kit, was incubated with 8 concentrations of radioligand in triplicate to determine total binding. […] Nonspecific binding was determined as above for saturation assays.
For radioligand binding data, nonspecific binding was subtracted from the total binding to get specific binding. Saturation binding data was fit to the “binding saturation-specific binding with hill slope” model. Competition binding data were fit to the “binding competition-one-site fit Ki” non-linear regression model and transformed to pKi values, reported as mean ± SD.
is 50 mM Tris HCl, 10 mM MgCl2 and 0.1 mM EDTA in filtered deionized water.

human 5-HT1A receptor = molecular target: T2, human 5-HT1A receptor (Homo sapiens, UniProt P08908); assay: Radioligand binding (saturation and competition), WT 5-HT1A
T2 construct: host or cells: HEK293T
T2 sequence (P08908 1-422): T1 sequence (P08908 1-422 N386T) with T386N

T7.39N 5-HT1B receptor = T7.39N 5-HT1B receptor (Homo sapiens, UniProt P28222, T355N); assay: cAMP accumulation in HEK293T cells, T7.39N 5-HT1B; type: cell-based; parameters: host or cells: HEK293T; conditions: point-mutated receptor, 3 independent experiments, read-out: pEC50 5-HT1B Receptor N7.39T (converted)
Method: (§1) Briefly, cells transfected with the desired receptor construct and compounds were incubated in the dark for 90 min at 37 °C. After incubation, cAMP detection reagents were added, and TR-FRET was used to quantify the cAMP produced.
(§2) The functional activity of compounds was determined by stimulating cells expressing the desired receptor with FSK and test compound in parallel with 12 known concentrations of cAMP. The known concentrations of cAMP were used to create a standard curve for each experiment that was used to interpolate the unknown values of cAMP in wells with test compounds. […] The EC50 and EMAX values were determined using the “dose response – log[agonist] vs response (three parameter)” nonlinear regression model in Prism and transformed to pEC50 values, reported as mean ± SD.
(§3) Summary of functional assay conditions at various 5-HT1 receptor point mutation constructs.

Y5.38A 5-HT1A receptor = molecular target: T3, Y5.38A 5-HT1A receptor (Homo sapiens, UniProt P08908, Y195A); assay: cAMP accumulation in HEK293T cells, Y5.38A 5-HT1A; type: cell-based; parameters: mutated in house (Quikchange II) HTR01A0000; host or cells: HEK293T; conditions: point-mutated receptor, 3 independent experiments, read-out: pEC50 5-HT1A Receptor Y5.38A (converted)
T3 sequence (P08908 1-422 Y195A): T1 sequence (P08908 1-422 N386T) with Y195A, T386N
Method: as §1, §2, §3

Chain of T7.39N 5-HT1B receptor (P28222 whole entry T355N): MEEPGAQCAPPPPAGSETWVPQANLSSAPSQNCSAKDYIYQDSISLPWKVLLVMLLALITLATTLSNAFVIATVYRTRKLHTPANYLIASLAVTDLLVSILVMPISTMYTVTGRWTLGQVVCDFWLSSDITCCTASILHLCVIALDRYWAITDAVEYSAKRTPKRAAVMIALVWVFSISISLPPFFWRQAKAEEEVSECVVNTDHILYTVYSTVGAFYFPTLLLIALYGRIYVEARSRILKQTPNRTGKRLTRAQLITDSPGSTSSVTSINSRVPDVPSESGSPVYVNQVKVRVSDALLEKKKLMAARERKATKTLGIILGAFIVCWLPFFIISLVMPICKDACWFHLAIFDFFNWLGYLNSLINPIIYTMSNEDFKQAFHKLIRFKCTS

SMILES | oral activity [1] | sedation [1] | prosocial behaviors [2] | repetitive behaviors [2] | spontaneous seizures [2] | pKi (N7.39T 5-HT1A receptor) | pKi (human 5-HT1A receptor; Affinity (pKi ± SD) 5-HT1A, WT receptor, [^3H]5-CT competition, mean ± SD) | EC50 (T7.39N 5-HT1B receptor) | EC50 (Y5.38A 5-HT1A receptor) | Ki (human 5-HT1A receptor; read-out: Affinity (pKi ± SD) 5-HT1A (converted))
CN(C)[C@H]1CCc2c(cccc2-c2ccccc2F)C1 [(S)-FPT] | orally active | did not cause sedation | increased | reduced | reduced | – | – | – | – | –
CN(C)[C@H]1CCc2c(cccc2-c2cccc3ccccc23)C1 [(S)-NAP] | – | – | – | – | – | 7.18 | 7.21 | 37.2 nM | 4680 nM | –
Fc1ccccc1-c1cccc2c1CC[C@H](N1CCCC1)C2 [(S)-PFPT] | – | – | – | – | – | 8.07 | – | 19.5 nM | 2.04 nM | 1.26 nM
